Patent US20050100617A1, “Method for improving age-related physiological deficits and increasing longevity” (priority 2001, published 2005)

Tested on: skeletal muscle (gastrocnemius) gene expression
Assay: Gene expression profiling in skeletal muscle, short-term (3 months) dietary intervention in young mice
Type: in vivo
Details: 3 months treatment
Method: For each target gene, the fold change is calculated as follows: [Expression obtained with the experimental diet] divided by [Expression obtained with control diet]. Consequently, fold changes of all target genes are equal to 1 (one) for the control diet. Thus, fold changes refers to the modulation of expression of a given target gene in muscle tissue after 3 months feeding with an experimental diet, for example, diets B, C, D, or F, when compared to the expression of the same gene in muscle tissue of the control group (diet A).
Dietary intervention was of 3 months, all animal groups were fed Ad libitum except for the group of caloric restricted mice which as fed 67% of the daily food consumed by the control Ad libitum group. Animal weight was measured once a week.
The effect of short and long nutritional intervention was investigated. The short-term dietary interventions with diet A, B, C, D and F was initiated in young mice and lasted for three months. In a similar way, long-term interventions were initiated at three months of age for the following diets A and B and D and lasted twenty-one months.
Male mice C57/B16 were obtained from Iffa credo (France) at 9 weeks of age. Upon arrival mice were housed by groups of 6 animals. After 3 weeks adaptation, mice (12 weeks old) were randomized 6 groups (A to F) of 12 mice each and housed individually. Dietary intervention was of 3 months; mice had free access to water and were submitted to 12 hours light and dark cycles.
The control diet (diet A) composed of 18% proteins (soy and whey), 11% fat (soybean oil), 59% carbohydrates (starch+sucrose) and 10% cellulose was supplemented with either a cocktail of antioxidants comprising vitamin C, vitamin E, grape seed extract and cysteine (diet C) and/or L-camitine (diet D and F respectively). For caloric restriction (diet B) fat, starch and sucrose were reduced to provide 67% of the daily calorie consumption of the Ad-lib control group while providing 100% for proteins, minerals and vitamins. These diets are as follows: • Diet A—Control: 18% proteins (soy and whey), 11% fat, 59% carbohydrates, 5% cellulose. • Diet B—Caloric restriction: 18% proteins (soy and whey), 7.7% fat, 32.5% carbohydrates, 5% cellulose • Diet C—Cocktail of antioxidants : Diet A+0.19% vit C, 0.03% vit E, 0.075% grape seed extract, 0.4% cysteine. • Diet D: Carnitine and Antioxidants: Diet A+0.3% L- camitine+cocktail of antioxidants of diet C. • Diet F: Carnitine: Diet A+0.3% L- carnitine
Mice were decapitated and dissected rapidly. Skeletal muscles (gastrocnemius) were immersed in RNAlatter (Ambion) and frozen at −80° C. until use. For RNA extraction, muscles were homogenized with ceramic beads (FastPrep, Q-Biogene) and the RNA extracted with Totally RNA kit (Ambion). The quality of the RNA was checked by Agilent technology. RNA pools from four mice each were created and hybridized to Affymetrix Murine U74Av2 high-density oligonucleotide microarrays.
The Global Error Assessment (GEA) methodology was used to select differentially expressed genes in the present invention. See Bioinformatics, Vol. 20, No. 16 (Oxford University Press 2004) pp. 2726-2737, the content of which is hereby incorporated by reference thereto. The goal was to select genes with statistically significant differential expression between treatments and ages of the mice of the study.

C[N+](C)(C)C[C@H](O)CC(=O)[O-] [Carnitine, L-carnitine]
0.3 fold: Fold Changes Gpx7 (glutathione peroxidase 7) | Fold Changes Mt2 (metallothionein 2) | Fold Changes Plk1 (polo-like kinase 1 (Drosophila))
4.1 fold: Fold Changes Atp1b2 (ATPase, Na+/K+ transporting, beta 2 polypeptide)
2.3 fold: Fold Changes Car4 (carbonic anhydrase 4) | Fold Changes Sri (sorcin)
0.2 fold: Fold Changes 5730497N03Rik (RIKEN cDNA 5730497N03 gene) | Fold Changes Klrb1c (killer cell lectin-like receptor subfamily B member 1C) | Fold Changes Slc2a5 (solute carrier family 2 (facilitated glucose transporter), member 5) | Fold Changes Zfp101 (zinc finger protein 101) | Fold Changes Itgav (integrin alpha V) (Table 1, first Itgav line)
6.5 fold: Fold Changes Esr1 (estrogen receptor 1 (alpha))
1.4 fold: Fold Changes 3110038L01Rik (RIKEN cDNA 3110038L01 gene) | Fold Changes Actb (actin, beta, cytoplasmic) | Fold Changes Akt1s1 (AKT1 substrate 1 (proline-rich)) | Fold Changes Lpl (lipoprotein lipase) | Fold Changes Rhoa (ras homolog gene family, member A) | Fold Changes Spr (sepiapterin reductase) | Fold Changes Tnxb (tenascin XB)
0.8 fold: Fold Changes 2010012F05Rik (RIKEN cDNA 2010012F05 gene) | Fold Changes 2210419D22Rik (RIKEN cDNA 2210419D22 gene) | Fold Changes 5730454B08Rik (RIKEN cDNA 5730454B08 gene) | Fold Changes Cd164 (CD164 antigen) | Fold Changes Deb1 (differentially expressed in B16F10 1) | Fold Changes Hdac2 (histone deacetylase 2) | Fold Changes Sara2 (SAR1a gene homolog 2 (S. cerevisiae)) | Fold Changes Sgk (serum/glucocorticoid regulated kinase) | Fold Changes Slc38a2 (solute carrier family 38, member 2) | Fold Changes Sorbs1 (sorbin and SH3 domain containing 1) | Fold Changes Transcribed sequence with strong similarity to protein sp: P49840 (H. sapiens)
2.8 fold: Fold Changes Mapk9 (mitogen activated protein kinase 9)
0.6 fold: Fold Changes 0610013E23Rik (RIKEN cDNA 0610013E23 gene) | Fold Changes 6330407G11Rik (RIKEN cDNA 6330407G11 gene) | Fold Changes Anp32e (acidic (leucine-rich) nuclear phosphoprotein 32 family, member E) | Fold Changes Arid1a (AT rich interactive domain 1A (Swi1 like)) | Fold Changes Arpc2 (actin related protein 2/3 complex, subunit 2) | Fold Changes C4 (complement component 4 (within H-2S)) | Fold Changes Capzb (capping protein (actin filament) muscle Z-line, beta) | Fold Changes Eif4ebp1 (eukaryotic translation initiation factor 4E binding protein 1) | Fold Changes Eif4ebp2 (eukaryotic translation initiation factor 4E binding protein 2) | Fold Changes Enpep (glutamyl aminopeptidase) | Fold Changes Gas5 (growth arrest specific 5) | Fold Changes Gstm5 (glutathione S-transferase, mu 5) | Fold Changes Hoxd8 (homeo box D8) | Fold Changes Igfbp5 (insulin-like growth factor binding protein 5) | Fold Changes Lbp (lipopolysaccharide binding protein) | Fold Changes Matr3 (matrin 3) | Fold Changes Mnt (max binding protein) | Fold Changes Npc1 (Niemann Pick type C1) | Fold Changes Nras (neuroblastoma ras oncogene) | Fold Changes Orc4l (origin recognition complex, subunit 4-like (S. cerevisiae)) | Fold Changes Pdcd4 (programmed cell death 4) | Fold Changes Psmd11 (proteasome (prosome, macropain) 26S subunit, non-ATPase, 11) | Fold Changes Rwdd1 (RWD domain containing 1) | Fold Changes Strap (serine/threonine kinase receptor associated protein) | Fold Changes Zfp289 (zinc finger protein 289)
4.8 fold: Fold Changes Lypla1 (lysophospholipase 1)
1.7 fold: Fold Changes Aldh2 (aldehyde dehydrogenase 2, mitochondrial) | Fold Changes Nnt (nicotinamide nucleotide transhydrogenase) | Fold Changes Utrn (utrophin)
2 fold: Fold Changes Siat6 (sialyltransferase 6 (N-acetyllacosaminide alpha 2,3-sialyltransferase))
1.8 fold: Fold Changes Dyrk1a (dual-specificity tyrosine-(Y)-phosphorylation regulated kinase 1a) | Fold Changes Ksr (kinase suppressor of ras)
4.2 fold: Fold Changes Htr1a (5-hydroxytryptamine (serotonin) receptor 1A)
5.2 fold: Fold Changes D19Ertd678e (DNA segment, Chr 19, ERATO Doi 678, expressed) | Fold Changes Erv4 (endogenous retroviral sequence 4 (with leucine t-RNA primer))
0.1 fold: Fold Changes Fcgr2b (Fc receptor, IgG, low affinity Ilb) | Fold Changes Myo5a (myosin Va) | Fold Changes Neurod6 (neurogenic differentiation 6)
4.7 fold: Fold Changes Xcl1 (chemokine (C motif) ligand 1)
0.9 fold: Fold Changes Pdk4 (pyruvate dehydrogenase kinase, isoenzyme 4) | Fold Changes Rab2 (RAB2, member RAS oncogene family) | Fold Changes Rtn4 (reticulon 4) | Fold Changes Tsta3 (tissue specific transplantation antigen P35B)
17.3 fold: Fold Changes Psap (prosaposin)
0.4 fold: Fold Changes Cdh10 (cadherin 10) | Fold Changes Itpr1 (inositol 1,4,5-triphosphate receptor 1) | Fold Changes Junb (Jun-B oncogene) | Fold Changes Mapre3 (microtubule-associated protein, RP/EB family, member 3) | Fold Changes Pcdha12 (protocadherin alpha 12) | Fold Changes Tnpo1 (transportin 1) | Fold Changes Vps54 (vacuolar protein sorting 54 (yeast)) | Fold Changes Rpl10a (ribosomal protein L10A) (Table 1 (down regulation))
1.3 fold: Fold Changes 6720463E02Rik (RIKEN cDNA 6720463E02 gene)
2.9 fold: Fold Changes E030006K04Rik (RIKEN cDNA E030006K04 gene)
1.1 fold: Fold Changes Slpi (secretory leukocyte protease inhibitor)
1.2 fold: Fold Changes 2310073E15Rik (RIKEN cDNA 2310073E15 gene) | Fold Changes 4732477C12Rik (RIKEN cDNA 4732477C12 gene) | Fold Changes D8Ertd69e (DNA segment, Chr 8, ERATO Doi 69, expressed) | Fold Changes Hbb-b1 (hemoglobin, beta adult major chain) | Fold Changes Ndufb3 (NADH dehydrogenase (ubiquinone) 1 beta subcomplex 3) | Fold Changes Rpl10a (ribosomal protein L10A) (Table 2 (up regulation))
4.3 fold: Fold Changes Stam2 (signal transducing adaptor molecule (SH3 domain and ITAM motif) 2)
1.5 fold: Fold Changes G0s2 (G0/G1 switch gene 2) | Fold Changes Hist2h3c2 (histone 2, H3c2) | Fold Changes Snx2 (sorting nexin 2) | Fold Changes St13 (suppression of tumorigenicity 13)
0.7 fold: Fold Changes 2310016A09Rik (RIKEN cDNA 2310016A09 gene) | Fold Changes Atp13a (ATPase type 13A) | Fold Changes Capza2 (capping protein (actin filament) muscle Z-line, alpha 2) | Fold Changes Cbfb (core binding factor beta) | Fold Changes Copb2 (coatomer protein complex, subunit beta 2 (beta prime)) | Fold Changes Ddb1 (damage specific DNA binding protein 1) | Fold Changes Eif2s3x (eukaryotic translation initiation factor 2, subunit 3, structural gene X-linked) | Fold Changes Eps15 (epidermal growth factor receptor pathway substrate 15) | Fold Changes Gpr12 (G-protein coupled receptor 12) | Fold Changes Itgb1 (integrin beta 1 (fibronectin receptor beta)) | Fold Changes Krtap3-1 (keratin associated protein 3-1) | Fold Changes Pigr (polymeric immunoglobulin receptor) | Fold Changes Psma3 (proteasome (prosome, macropain) subunit, alpha type 3) | Fold Changes Psmd8 (proteasome (prosome, macropain) 26S subunit, non-ATPase, 8) | Fold Changes Rbm17 (RNA binding motif protein 17) | Fold Changes Rpl30 (ribosomal protein L30) | Fold Changes Rpp14 (ribonuclease P 14 kDa subunit (human)) | Fold Changes Scamp2 (secretory carrier membrane protein 2) | Fold Changes Tcfl1 (transcription factor-like 1) | Fold Changes Transcribed sequences | Fold Changes Ubb (ubiquitin B) | Fold Changes Ube2e1 (ubiquitin-conjugating enzyme E2E 1, UBC4/5 homolog (yeast)) | Fold Changes Upf3b (UPF3 regulator of nonsense transcripts homolog B (yeast)) | Fold Changes Xpo7 (exportin 7) | Fold Changes Itgav (integrin alpha V) (Table 1, second Itgav line)
1.6 fold: Fold Changes Ldh2 (lactate dehydrogenase 2, B chain) | Fold Changes Pcnt2 (pericentrin 2) | Fold Changes Tubg2 (tubulin, gamma 2)
5.9 fold: Fold Changes Birc4 (baculoviral IAP repeat-containing 4) | Fold Changes Klf3 (Kruppel-like factor 3 (basic))
1.9 fold: Fold Changes Cpd (carboxypeptidase D) | Fold Changes Retn (resistin) | Fold Changes Wars (tryptophanyl-tRNA synthetase)
5.4 fold: Fold Changes Cd97 (CD97 antigen)
0.5 fold: Fold Changes 2610034N03Rik (RIKEN cDNA 2610034N03 gene) | Fold Changes 2700059D21Rik (RIKEN cDNA 2700059D21 gene) | Fold Changes Apobec2 (apolipoprotein B editing complex 2) | Fold Changes Ccl9 (chemokine (C-C motif) ligand 9) | Fold Changes Cebpd (CCAAT/enhancer binding protein (C/EBP), delta) | Fold Changes Galnt1 (UDP-N-acetyl-alpha-D-galactosamine:polypeptide N-acetylgalactosaminyltra) | Fold Changes Hmgcl (3-hydroxy-3-methylglutaryl-Coenzyme A lyase) | Fold Changes Macf1 (microtubule-actin crosslinking factor 1) | Fold Changes Mapt (microtubule-associated protein tau) | Fold Changes Mt1 (metallothionein 1) | Fold Changes Muc1 (mucin 1, transmembrane) | Fold Changes Pkm2 (pyruvate kinase, muscle) | Fold Changes Prp19 (PRP19/PSO4 homolog (S. cerevisiae)) | Fold Changes Psmc1 (protease (prosome, macropain) 26S subunit, ATPase 1) | Fold Changes Rrad (Ras-related associated with diabetes) | Fold Changes Skp1a (S-phase kinase-associated protein 1A) | Fold Changes Tm4sf3 (transmembrane 4 superfamily member 3) | Fold Changes Top1 (topoisomerase (DNA) I)
2.5 fold: Fold Changes Tgm3 (transglutaminase 3, E polypeptide)
4.6 fold: Fold Changes Camk2a (calcium/calmodulin-dependent protein kinase II alpha) | Fold Changes Itgav (integrin alpha V) (Table 2 (up regulation))
